Tested on: C2C12 cells
Assay: Introduction of low-molecular-weight compound (FITC) into skeletal muscle cell
Format: cell-based
Procedure: C2C12 cells (3×10^4 cells, 0.5 mL) in 10% FBS-containing DMEM medium were seeded in 48 wells. After removing the medium, 0.5 ml of ultrafine bubble/DMEM medium containing 0.38 μg of FITC was added. An ultrafine bubble/DMEM medium prepared by adding 1 L of the ultrafine bubble aqueous solution prepared in Reference Example 1 to a DMEM medium powder, and adding 2 g/L NaHCO3 and 10% FBS was used as a transfection medium.
After adding the FITC-containing medium, ultrasound exposure was performed for 10 sec at a frequency of 1 MHz and output intensities of 100, 250, 500 mW/cm^2 and using an ultrasound generator (NEPAGENE). After ultrasound exposure, the cells were cultured for 2 hr, then the transfection medium was removed, and the cells were cultured in DMEM medium (culture medium) for 48 hr.
After completion of the culture, the cells were collected, completely lysed with 0.5 mL of cell lysis solution, and the fluorescent intensity of FITC was measured with a spectrofluoro-photometer. The amount of FITC uptake was evaluated as a relative amount by proportional calculation with the measured value of Control (ultrafine bubbles alone) as 1.

O=C1OC2(c3ccc(O)cc3Oc3cc(O)ccc32)c2ccc(N=C=S)cc21 [FITC]
introduction efficiency of FITC into the cell (ultrafine bubbles (negatively-charged, C3F8) combined with ultrasound 1 MHz, 10 sec, C2C12, 0.38 μg FITC): remarkably increased
introduction efficiency of FITC (ultrafine bubbles + ultrasound 100 mW/cm^2): increasing tendency was observed
introduction efficiency of FITC (ultrafine bubbles + ultrasound 250 mW/cm^2): particularly superior introduction efficiency
introduction efficiency of FITC (ultrafine bubbles + ultrasound 250 or 500 mW/cm^2): increased significantly

From patent US20220249665A1, “TRANSFECTION METHOD” (Takeda Pharmaceutical Company Limited, priority 2019, published 2022)
